{
  "source": "patent US11324750B2",
  "about": "“Compositions and methods for the treatment of severe acute respiratory syndrome coronavirus 2 (SARS-CoV-2) infection” (Children's Hospital Medical Center, priority 2020, dated 2022)",
  "key": {"[1]": {"tested_on": "SARS-CoV-2", "test": "SARS-CoV-2 copies number in blood by one-step RT-ddPCR", "type": "in vivo"}, "[2]": {"tested_on": "48 cytokines in serum", "test": "Serum cytokines, Bio-Plex Pro Human Cytokines 48-Plex Screening assay", "conditions": "in vivo"}, "[3]": {"tested_on": "severe COVID-19 patients", "test": "Randomized controlled trial, clinical outcomes (seven-category ordinal scale, chest CT, mortality, lymphocyte recovery, supportive treatments)", "type": "in vivo, human", "conditions": "for CT scan follow-up within 14 days: Improvement, %: P 0.07 vs control", "description": "As of the effective date of this application, no therapeutics have yet been proven effective for the treatment of severe COVID-19 with cytokine storm. Ruxolitinib, a potent and selective oral inhibitor of Janus kinase (JAK) 1 and JAK2, was proposed by Applicant to be beneficial in the treatment of cytokine storm. Applicant conducted a prospective, multicenter, single-blind, randomized controlled trial involving participants diagnosed as severe COVID-19 patients. The enrolled patients were randomly separated into two groups with a 1:1 allocation by an independent statistician in blocks of 4 for all 3 sites. Study number and treatment allocation codes were provided in sequentially numbered opaque envelops. Intervention group is treated with ongoing oral intake 5 mg of ruxolitinib (Jakafi®, Novartis Pharma Stein AG, Switzerland) twice a day based on the standard-of-care (SoC); the control group is treated with placebo plus SoC. The primary endpoint was the incidence of serious adverse events occurring up to 28 days and the time to clinical improvement. The secondary endpoint is the overall mortality at D28. This trial is registered at www.chictr.org.cn as ChiCTR-OPN-2000029580.\nA prospective, single-blind, randomized controlled trial was designed. Participants diagnosed as positive for COVID-19 were enrolled for screening in three hospitals including Tongji hospital and No. 1 hospital in Wuhan and the Third Xiangya hospital in Changsha, China. The original protocol included secondary randomization in a treatment group for infusion of mesenchymal stem cells if the patient's clinical response had deteriorated within seven days after first randomization. Because no deterioration had occurred in patients of the treatment group within seven days after first randomization and secondary randomization was unnecessary, the protocol was updated correspondingly. This study was approved by the Medical ethics committee of Tongji Hospital, Tongji Medical College, Huazhong University of Science and Technology, Wuhan, China, registered at www.chictr.org.cn as ChiCTR-OPN-2000029580.\nParticipants. All participants were required to meet the following inclusion criteria: (1) enrolled patients met the diagnostic criterial for COVID-19. The diagnosis and the illness severity of COVID-19 were defined according to the Chinese management guideline for COVID-19 (version 5.0)^28; (2) patients were eligible if they were 18 years or older and younger than 75 years. (3) only severe cases were enrolled. Exclusion criterial included: (1) patients with other malignant tumors in the course of treatment; (2) patients with severe cardiovascular and metabolic disease in unstable status, even if treated with drugs; (3) patients with mental or severe psychiatric disorder who are unable to understand or abide the study protocols; (4) patients needing orotracheal intubation or invasive ventilation; (5) patients who cannot guarantee to complete the scheduled treatment plan and follow-up; (6) women of child-bearing age having positive pregnancy test or still lactating; (7) patients having other active infections; (8) patients having any conditions deemed to potentially affect the safety of the study protocols. Written informed consent was obtained from all patients or the patients' legal representative if the patient was too unwell to provide the consent.\nRandomization and masking. The enrolled patients were then randomly allocated into two groups with a 1:1 allocation ratio by an independent statistician using permuted blocks of 4 for all 3 sites. Patient unique identification number and treatment allocation codes were provided in sequentially numbered opaque envelops. Treating physicians were aware of group allocations while the enrolled participants, staff at trial sites, CT radiologists and laboratory personnel were masked to the trial group assignment.\nProcedures. The first day of randomization was designated as D0. […]"}, "[4]": {"tested_on": "SARS-CoV-2", "test": "Virus clearance time by RT-PCR on throat swab", "type": "in vivo", "conditions": "median (IQR); patients with positive RT-PCR on throat swab; P 0.85 (table), P=0.65"}},
  "note": "Entries after “also recorded” stand apart in the source; their conditions may differ.",
  "data": [
    {"smiles": "N#CC[C@H](C1CCCC1)n1cc(-c2ncnc3[nH]ccc23)cn1", "note": "[Ruxolitinib, (3R)-3-cyclopentyl-3-[4-(7H-pyrrolo[2,3-d]pyrimidin-4-yl)pyrazol-1-yl]propanenitrile]", "values": [
      {"measurement": "Blood viral RNA loads at D1", "setting": "[1]; mean (±SEM), baseline, P=0.57 vs control", "value": "94±26", "unit": "copies per milliliter"},
      {"measurement": "Viral load at discharge", "setting": "[1]; vs SoC alone, P=0.63", "value": "did not differ"},
      {"measurement": "Average fold-change of 48 cytokines", "setting": "[2]", "value": 0.466},
      {"measurement": "Average values of 48 cytokines", "setting": "[2]", "value": "decreased significantly; also recorded: all average values of 48 cytokines decreased"},
      {"measurement": "Level of MIP-1α", "setting": "[2]", "value": "markedly decreased"},
      {"measurement": "Level of interleukin-6 (IL-6)", "setting": "[2]", "value": "markedly decreased"},
      {"measurement": "Level of interleukin-12 (IL-12) (p40)", "setting": "[2]", "value": "markedly decreased"},
      {"measurement": "Level of macrophage inflammatory protein 1β (MIP-1β)", "setting": "[2]", "value": "markedly decreased"},
      {"measurement": "Level of macrophage migration inhibitory factor (MIF)", "setting": "[2]", "value": "markedly decreased"},
      {"measurement": "Level of nerve growth factor β (NGF-β)", "setting": "[2]", "value": "markedly decreased"},
      {"measurement": "Level of vascular endothelial growth factor (VEGF)", "setting": "[2]", "value": "markedly decreased"},
      {"measurement": "CT scan follow-up within 14 days: Progression, %", "setting": "[3]; chest CT, N = 20", "value": "(5.0%)"},
      {"measurement": "CT scan follow-up within 14 days: Stable, %", "setting": "[3]; chest CT, N = 20", "value": "(5.0%)"},
      {"measurement": "CT scan follow-up within 14 days: Improvement, %", "setting": "[3]; chest CT, N = 20", "value": "(90.0%)"},
      {"measurement": "CT scan follow-up within 14 days: Improvement, %", "setting": "[3]; chest CT, N = 20, listed as ruxolitinib", "value": 90, "unit": "%"},
      {"measurement": "Time from randomization to death", "setting": "[3]; median (IQR)", "value": 0, "unit": "days"},
      {"measurement": "Time from randomization to discharge", "setting": "[3]; median (IQR), P 0.94 vs control", "value": 17, "unit": "days"},
      {"measurement": "Time to lymphocyte recovery", "setting": "[3]; median (IQR), patients with lymphopenia, log-rank P 0.03 vs control", "value": 5, "unit": "days"},
      {"measurement": "Time to clinical improvement", "setting": "[3]; median (IQR), primary efficacy endpoint, log-rank P 0.15 vs control", "value": 12, "unit": "days"},
      {"measurement": "Clinical improvement Day 28, %", "setting": "[3]; seven-category ordinal scale, N = 20, P 0.23 vs control", "value": "(100.0%)"},
      {"measurement": "Clinical improvement Day 14, %", "setting": "[3]; seven-category ordinal scale, N = 20, P 0.35 vs control", "value": "(60.0%)"},
      {"measurement": "Clinical improvement Day 7, %", "setting": "[3]; seven-category ordinal scale, N = 20, P 0.41 vs control", "value": "(20.0%)"},
      {"measurement": "Clinical improvement Day 21, %", "setting": "[3]; seven-category ordinal scale, N = 20, P 1.00 vs control", "value": "(90.0%)"},
      {"measurement": "Virus clearance time", "setting": "[4]", "value": 13, "unit": "days"}
    ]}
  ]
}
